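Briefly, cells in 96-well plates were exposed to five compound concentrations for 48 h, and endpoints were estimated by linear interpolation. Abbreviation: GI50, concentration required for 50% inhibition of growth. TGI: concentration producing complete growth inhibition.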

Experimental findings from PubChem BioAssay (NCI) are described below.

Test systems include ACHN renal; CAKI-1 renal; HCT-116 colon; OVCAR-8 ovarian; PC-3 prostate; SF-268 CNS; SF-295 CNS; SN12C renal; SNB-19 CNS; U251 CNS.
What all share (assay): NCI-60 cell line screen, 48 h

In the case of `O=C(NNc1ccc(F)cc1)C1CCC(CNS(=O)(=O)c2ccc(Cl)c(Cl)c2)CC1` (stereo not drawn), the GI50 in the experiment with ACHN renal is 4.08 µM; in the experiment with CAKI-1 renal, 2.87 µM; with HCT-116 colon, 6.51 µM; in the experiment on OVCAR-8 ovarian, 8.79 µM; in the experiment on PC-3 prostate, 6.3 µM; with SF-268 CNS, 4.76 µM. Also, the GI50 is 2160 nM with SF-295 CNS, 7.97 µM in the experiment on SN12C renal, more than 50 µM in the experiment with SNB-19 CNS and 10.3 µM in the experiment with U251 CNS. The TGI in the experiment with ACHN renal was 13.4 µM; with CAKI-1 renal it was 28.1 µM; with HCT-116 colon, 33.9 µM; in the experiment with OVCAR-8 ovarian, 35.6 µM; in the experiment on PC-3 prostate it was 39.5 µM; in the experiment on SF-268 CNS, more than 50 µM. Moreover, the TGI in the experiment on SF-295 CNS is 45.5 µM; in the experiment on SN12C renal, more than 50 µM; with SNB-19 CNS, more than 50 µM; with U251 CNS, more than 50 µM.

With `COc1cc(/C=C2\Oc3cc(OCCCN4CCCC4)ccc3C2=O)cc(OC)c1`, the GI50 with ACHN renal was 3.13 µM; with CAKI-1 renal, 3.54 µM; in the experiment on HCT-116 colon, 2.78 µM; in the experiment with OVCAR-8 ovarian, 3.71 µM; with PC-3 prostate, 4.52 µM; in the experiment on SF-268 CNS it was 6.1 µM. For the same compound, the GI50 with SF-295 CNS was 2880 nM; with SN12C renal, 10.3 µM; in the experiment with SNB-19 CNS, 3.31 µM; with U251 CNS, 2.38 µM. Also, the TGI is 10.7 µM in the experiment with ACHN renal; 16.4 µM with CAKI-1 renal; 8.34 µM with HCT-116 colon; 15.4 µM in the experiment with OVCAR-8 ovarian; 18.1 µM in the experiment with PC-3 prostate; 23.9 µM in the experiment with SF-268 CNS. The TGI turned out to be 10.6 µM with SF-295 CNS, 22 µM in the experiment on SN12C renal, 13.4 µM in the experiment with SNB-19 CNS and 7.71 µM in the experiment on U251 CNS.

Take `CCCCCCCCCCC/C=C\C[C@H](O)C/C=C1/C(=O)C=C[C@@H]1C/C=C\CCCC(=O)OC`: the GI50 in the experiment on ACHN renal is 1.23 µM; in the experiment on CAKI-1 renal, 1.07 µM; in the experiment with HCT-116 colon, 0.734 µM; in the experiment on OVCAR-8 ovarian, 0.966 µM; with PC-3 prostate it was 0.836 µM; in the experiment with SF-268 CNS, 0.939 µM. Besides, the GI50 in the experiment with SF-295 CNS is 1370 nM; in the experiment with SN12C renal, 0.841 µM; in the experiment with SNB-19 CNS, 1.24 µM; in the experiment with U251 CNS it was 0.581 µM. For the same compound, the TGI in the experiment on ACHN renal worked out at 4.9 µM; in the experiment with CAKI-1 renal, 5.62 µM; with HCT-116 colon, 1.83 µM; in the experiment with OVCAR-8 ovarian, 4.64 µM; in the experiment with PC-3 prostate it was 2.76 µM; in the experiment with SF-268 CNS, 3.97 µM. Also, the TGI with SF-295 CNS was determined as 6.74 µM; in the experiment on SN12C renal, 2.29 µM; in the experiment on SNB-19 CNS, 4.58 µM; in the experiment on U251 CNS, 1.53 µM.

For the compound `O=C(O)C1C2C=CC(C2)C1C(=O)O` (stereo not drawn), the GI50 with ACHN renal, in the experiment with CAKI-1 renal, in the experiment on HCT-116 colon, in the experiment with OVCAR-8 ovarian, in the experiment with PC-3 prostate and in the experiment on SF-268 CNS was more than 100 µM throughout. For the same compound, the GI50 in the experiment on SF-295 CNS is more than 100000 nM; with SN12C renal, more than 100 µM; in the experiment on SNB-19 CNS, more than 100 µM; in the experiment with U251 CNS, more than 100 µM. Moreover, the TGI in the experiment on ACHN renal, in the experiment with CAKI-1 renal, with HCT-116 colon, in the experiment with OVCAR-8 ovarian, with PC-3 prostate and in the experiment with SF-268 CNS was more than 100 µM throughout. Besides, the TGI in the experiment on SF-295 CNS, with SN12C renal, in the experiment with SNB-19 CNS and in the experiment on U251 CNS was more than 100 µM in each case.

Take `CSCC[C@H](NC(=O)[C@H](CC(C)C)NC(=O)[C@@H](Cc1ccccc1)NC(=O)CNC(=O)[C@@H](NC(=O)[C@H](C)NC(=O)[C@H](Cc1c[nH]c2ccccc12)NC(=O)[C@H](CCC(N)=O)NC(=O)[C@H](N)CC(N)=O)C(C)C)C(N)=O`: the TGI in the experiment on ACHN renal, in the experiment on CAKI-1 renal, in the experiment on HCT-116 colon, in the experiment with OVCAR-8 ovarian, in the experiment on PC-3 prostate and with SF-268 CNS was more than 12.5 µM in each case. Further, the TGI in the experiment with SF-295 CNS, in the experiment with SN12C renal, with SNB-19 CNS and with U251 CNS was more than 12.5 µM throughout.

In the case of `O=S1(=O)NC2CCC3NS(=O)(=O)NC4CCC(N1)N4S(=O)(=O)N23` (stereo not drawn), the TGI with ACHN renal, in the experiment on CAKI-1 renal, in the experiment with HCT-116 colon, with OVCAR-8 ovarian, in the experiment on PC-3 prostate and in the experiment with SF-268 CNS was more than 100 µM each time. In addition, the TGI in the experiment on SF-295 CNS, with SN12C renal, in the experiment on SNB-19 CNS and in the experiment with U251 CNS was more than 100 µM in each case.

On to `Cn1c2ccccc2c(=O)c2c(O)cc3c(c21)CC(C1(C)CO1)O3` (stereo not drawn), for which the TGI with ACHN renal is 5.73 µM; in the experiment with CAKI-1 renal it was 17.9 µM; in the experiment with HCT-116 colon, 3.06 µM; in the experiment with OVCAR-8 ovarian it was 2.51 µM; in the experiment with PC-3 prostate it was 14.2 µM; in the experiment on SF-268 CNS, 4.11 µM. The TGI stood at 39.2 µM in the experiment on SF-295 CNS, 3.77 µM in the experiment on SN12C renal, 26.9 µM with SNB-19 CNS and 11.7 µM with U251 CNS.

Take `CN(C)CCC=C1c2ccccc2C(C)(C)c2ccccc21`: the GI50 was 14.7 µM in the experiment on ACHN renal; 8.56 µM in the experiment with CAKI-1 renal; 10.3 µM in the experiment with HCT-116 colon; 18.6 µM with OVCAR-8 ovarian; 10.4 µM with PC-3 prostate; 14.7 µM with SF-268 CNS. In addition, the GI50 in the experiment with SF-295 CNS was 3920 nM; in the experiment on SN12C renal, 15.6 µM; in the experiment with SNB-19 CNS, 15.2 µM; with U251 CNS, 12.2 µM. The TGI is 27.9 µM with ACHN renal; 23.6 µM with CAKI-1 renal; 22.4 µM in the experiment with HCT-116 colon; 37.6 µM in the experiment on OVCAR-8 ovarian; 24.3 µM in the experiment with PC-3 prostate; 27.8 µM in the experiment with SF-268 CNS. Moreover, the TGI is 19.7 µM with SF-295 CNS, 34 µM in the experiment on SN12C renal, 28.5 µM with SNB-19 CNS and 26.1 µM with U251 CNS.

In the case of `CC(C)(CCN=C(N)Nc1ccccn1)c1ccc(C(F)(F)F)cc1`, the GI50 is 13.5 µM with ACHN renal; 10.6 µM in the experiment with HCT-116 colon; 17.7 µM in the experiment on OVCAR-8 ovarian; 14.2 µM in the experiment with PC-3 prostate; 16.5 µM in the experiment with SF-268 CNS; 14900 nM in the experiment with SF-295 CNS. Also, the GI50 in the experiment with SN12C renal is 15.1 µM; in the experiment on SNB-19 CNS, 16.9 µM; in the experiment with U251 CNS, 16.4 µM. In addition, the TGI in the experiment with ACHN renal is 26.5 µM; with HCT-116 colon, 24.3 µM; in the experiment with OVCAR-8 ovarian it was 33.2 µM; in the experiment on PC-3 prostate, 28.9 µM; in the experiment with SF-268 CNS, 35.6 µM; in the experiment on SF-295 CNS it was 29.3 µM. The TGI in the experiment on SN12C renal stood at 29.8 µM; with SNB-19 CNS, 33.1 µM; in the experiment with U251 CNS, 30.4 µM.
